≈ marks a conversion by molar mass, not a printed value. Like-named read-outs stand apart in the source and are kept apart here.
Tests used:
S. aurues DHFR = S. aurues DHFR (Staphylococcus aureus, UniProt P0A017); test: biochemical; type: biochemical
S. aureus = test: Antibacterial activity (MIC), whole-cell bacterial growth inhibition; type: cell-based, Staphylococcus aureus; conditions: Staphylococcus aureus
Text: Antibacterial activity as measured by the minimal inhibitory concentrations (MIC) and minimal bactericidal concentrations of compounds are well known (see., e.g., National Committee for Clinical Laboratory Standards 2000 Performance standards for antimicrobial disk susceptibility tests: approved standard, 7th ed. M2-A7, vol. 20, no. 1, Committee for Clinical Laboratory Standards, Wayne, Pa.) In vitro testing for antibacterial activity may be accomplished through use of a whole-cell bacterial growth inhibition assay. For example, an […] assay identifies a substance that inhibits bacterial growth. Microtiter plates are prepared with serial dilutions of the test compound, adding to the preparation a given amount of growth substrate, and providing a preparation of bacteria. Inhibition of bacterial growth is determined, for example, by observing changes in optical densities of the bacterial cultures. Inhibition of bacterial growth is determined, for example, by comparing (in the presence and absence of a test compound) the rate of growth or the absolute growth of bacterial cells. Inhibition includes a reduction of one of the above measurements by at least 20%.

human DHFR = human DHFR (Homo sapiens (Human), UniProt P00374); test: DHFR enzymatic inhibition (Ki), human DHFR; type: biochemical
[1] = S. aureus in 20% serum, read-out: MIC in μg/ml S. aureus in 20% serum
[2] = S. aureus, read-out: MIC in μg/ml S. aureus

Chain of human DHFR (P00374 whole entry): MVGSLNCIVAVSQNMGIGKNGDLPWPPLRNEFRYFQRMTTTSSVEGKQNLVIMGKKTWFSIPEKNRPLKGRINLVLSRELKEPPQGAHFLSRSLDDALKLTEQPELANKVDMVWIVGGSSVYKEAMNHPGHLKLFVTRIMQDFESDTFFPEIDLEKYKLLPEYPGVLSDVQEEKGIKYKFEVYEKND

Compound	Ki (S. aurues DHFR; S. aureus DHFR) [nM]	MIC (S. aureus; [1]) [µg/mL]	MIC (S. aureus; [2]) [µg/mL]	Ki (human DHFR) [nM]	Ki (S. aurues DHFR) [nM]
COc1cnc(Cl)cc1-c1cc2nc(N)nc(N)c2cc1C [Compound 38, 7-(2-chloro-5-methyloxypyridin-4-yl)-6-methylquinazoline-2,4-diamine]	1.4	1 (≈ 3.17 µM)	1 (≈ 3.17 µM)	52.4	
Cc1cc2nc(-c3nccs3)n(-c3ccc4c(N)nc(N)nc4c3)c2cc1C [Compound 22, 7-[5,6-dimethyl-2-(thiazol-2-yl)-1H-benzo[d]-imidazol-1-yl]quinazoline-2,4-diamine]	0.002	≤ 0.125	≤ 0.125	93.5	
Nc1ccc(-c2ccc3c(N)nc(N)nc3c2)cc1 [Compound 4, 7-(4-aminophenyl)quinazoline-2,4-diamine]	2.7	2 (≈ 7.96 µM)	4 (≈ 15.9 µM)	702	
Cc1cc2nc(-c3ccsc3)n(-c3ccc4c(N)nc(N)nc4c3)c2cc1C [Compound 21, 7-(5,6-dimethyl-2-(thiophen-3-yl)-1H-benzo[d]-imidazol-1-yl)quinazoline-2,4-diamine]	0.012	0.25 (≈ 0.647 µM)	≤ 0.125	663	
Cc1cc2nc(N3CCOCC3)n(-c3ccc4c(N)nc(N)nc4c3)c2cc1C [Compound 19, 7-(5,6-dimethyl-2-morpholino-1H-benzo[d]-imidazol-1-yl)quinazoline-2,4-diamine]	0.6	4 (≈ 10.3 µM)	1 (≈ 2.57 µM)	1090	
Cc1cc2nc(-c3cccs3)n(-c3ccc4c(N)nc(N)nc4c3)c2cc1C [Compound 18, 7-(5,6-dimethyl-2-(thiophen-2-yl)-1H-benzo[d]-imidazol-1-yl)quinazoline-2,4-diamine]	0.005	0.5 (≈ 1.29 µM)	≤ 0.125	1030	
COc1ccc(OC)c(-c2cc3nc(N)nc(N)c3cc2C)c1 [Compound 8, 7-(2,5-dimethoxyphenyl)-6-methylquin-azoline-2,4-diamine]		1 (≈ 3.22 µM)	1 (≈ 3.22 µM)	27.5	0.66
Cc1cc2c(N)nc(N)nc2cc1-c1cccc(C#N)c1 [Compound 11, 3-(2,4-diamino-6-methylquinazolin-7-yl)benzonitrile]	1.2	2 (≈ 7.26 µM)	1 (≈ 3.63 µM)	55	
CCOc1ccc2ccccc2c1-c1cc2nc(N)nc(N)c2cc1C [Compound 31, 7-(2-ethoxynaphthalen-1-yl)-6-methylquinazoline-2,4-diamine]	0.026	0.5 (≈ 1.45 µM)	≤ 0.125	4.5	
COc1cc2nc(-c3nccs3)n(-c3ccc4c(N)nc(N)nc4c3)c2cc1OC [Compound 35]	0.16	0.25 (≈ 0.596 µM)	0.25 (≈ 0.596 µM)	854	
COc1ccc2nc(SCCC(C)(F)F)n(-c3ccc4c(N)nc(N)nc4c3)c2c1 [Compound 20, 7-(2-(3,3-difluorobutylthio)-6-methoxy-1H-benzo-[d]imidazol-1-yl)quinazoline-2,4-diamine]	0.12	4 (≈ 9.29 µM)	0.5 (≈ 1.16 µM)	586	
Cc1cc2c(N)nc(N)nc2cc1-c1cc(N)cc(C#N)c1 [Compound 12, 3-amino-5-(2,4-diamino-6-methylquin-azolin-7-yl)benzonitrile]	0.65	1 (≈ 3.44 µM)	1 (≈ 3.44 µM)	44	
COc1cc(-c2cc3nc(N)nc(N)c3cc2C)cc(OC)c1OC [Compound 33, 6-methyl-7-(3,4,5-trimethoxyphenyl) quinazoline-2,4-diamine]	0.91	1 (≈ 2.94 µM)	≤ 0.5	47.1	
Cc1cc2c(N)nc(N)nc2cc1-c1cccc(CC#N)c1 [Compound 13, 2-(3-(2,4-diamino-6-methylquinazolin-7-yl)-phenyl)acetonitrile]	0.5	2 (≈ 6.91 µM)	0.5 (≈ 1.73 µM)	44	
Cc1cc2nc(-c3ccccn3)n(-c3ccc4c(N)nc(N)nc4c3)c2cc1C [Compound 16, 7-(5,6-dimethyl-2-(pyridin-2-yl)-1H-benzo[d]-imidazol-1-yl)quinazoline-2,4-diamine]	0.022	0.25 (≈ 0.655 µM)	≤ 0.125	572	
COc1cc2nc(-c3nccs3)n(-c3cc4nc(N)nc(N)c4cc3Cl)c2cc1OC [Compound 23, 6-chloro-7-(5,6-dimethoxy-2-(thiazol-2-yl)-1H-benzo[d]imidazol-1-yl)quinazo-line-2,4-diamine]	0.011	0.5 (≈ 1.1 µM)	≤ 0.125	320	
Cc1cc2c(N)nc(N)nc2cc1-c1ccc(N)cc1 [Compound 5, 7-(4-aminophenyl)-6-methylquinazoline-2,4-diamine]	0.89	1 (≈ 3.77 µM)	1 (≈ 3.77 µM)	138	
Cc1cc2c(N)nc(N)nc2cc1-c1cccc2[nH]ccc12 [Compound 9, 7-(1H-indol-4-yl)-6-methylquinazoline-2,4-diamine]	0.61	1 (≈ 3.46 µM)	0.25 (≈ 0.864 µM)	245	
CC(=O)c1cccc(-c2ccc3c(N)nc(N)nc3c2)c1 [Compound 6, 1-(3-(2,4-diaminoquinazolin-7-yl)-phenyl)ethanone]	4.4	8 (≈ 28.7 µM)	4 (≈ 14.4 µM)	323	
COCCn1c(-c2ccc3c(N)nc(N)nc3c2)nc2cc(C)c(C)cc21 [Compound 14, 7-(1-(2-methoxyethyl)-5,6-dimethyl-1H-benzo[d]-imidazol-2-yl)quinazoline-2,4-diamine]	1.6	4 (≈ 11 µM)	4 (≈ 11 µM)	263	
COc1ccc(-c2cc3nc(N)nc(N)c3cc2Cn2ccnc2)cc1OC [Compound 10, 6-((1H-imidazol-1-yl)methyl)-7-(3,4-dimethoxyphenyl)quinazoline-2,4-diamine]	0.51	2 (≈ 5.31 µM)	8 (≈ 21.3 µM)	53.6	
CCOc1ccc(-c2cccc(NS(C)(=O)=O)c2)cc1-c1ccc2c(N)nc(N)nc2c1 [Compound 30, N-(3′-(2,4-diaminoquinoazlin-7-yl)-4′-ethoxybiphenyl-3-yl)methanesulfonamide]	0.02	2 (≈ 4.45 µM)	≤ 0.5	5.8	
COc1ccccc1-c1ccc2c(N)nc(N)nc2c1 [Compound 1, 7-(2-methoxyphenyl)quinazoline-2,4-diamine]		4 (≈ 15 µM)	2 (≈ 7.51 µM)	1140	2.7
COc1ccc(OC)c(-c2ccc3c(N)nc(N)nc3c2)c1 [Compound 3, 7-(2,5-dimethoxyphenyl) quinazoline-2,4-diamine]		8 (≈ 27 µM)	4 (≈ 13.5 µM)	345	4
Cc1ccc2c(c1)nc(-c1cccs1)n2-c1ccc2c(N)nc(N)nc2c1 [Compound 36]	0.005	1 (≈ 2.68 µM)	1 (≈ 2.68 µM)	314	
COc1cc2nc(-c3nccs3)n(-c3cc4nc(N)nc(N)c4cc3C)c2cc1OC [Compound 24, 7-(5,6-dimethoxy-2-(thiazol-2-yl)-1H-benzo[d]-imidazol-1-yl)-6-methylquin-azoline-2,4-diamine]	0.019	≤ 0.5	≤ 0.5	170	

From patent publication US8835445B2, “Dihydrofolate reductase inhibitors” (Trius Therapeutics, Inc., priority 2010, dated 2014)
